Test results: PubChem BioAssay (NCI)
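Step 1: Grow cells in 96-well plates. Step 2: Expose to compound for 48 hours at 5 concentrations. Step 3: Interpolate endpoints linearly; if unreached, use highest concentration. At the GI50, growth is halved. TGI: concentration producing complete growth inhibition.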 Where a SMILES comes first, the peptide text is derived from it. [ ]: non-standard residue; d: D form. pGlu = O=C1CC[CH](C(=O)O)N1

Legend:
Experiment in all cases: inhibition of tumour cell growth, NCI panel, 48 h
CAKI-1 renal = tested on: CAKI-1 renal
LOX IMVI melanoma = tested on: LOX IMVI melanoma
MDA-N = tested on: MDA-N
OVCAR-3 ovarian = tested on: OVCAR-3 ovarian
PC-3 prostate = tested on: PC-3 prostate
SNB-19 CNS = tested on: SNB-19 CNS
UACC-257 melanoma = tested on: UACC-257 melanoma
SF-295 CNS = tested on: SF-295 CNS

| SMILES | TGI (CAKI-1 renal) [µM] | TGI (LOX IMVI melanoma) [µM] | TGI (MDA-N) [µM] | TGI (OVCAR-3 ovarian) [µM] | TGI (PC-3 prostate) [µM] | TGI (SNB-19 CNS) [µM] | TGI (UACC-257 melanoma) [µM] | TGI (SF-295 CNS) [µM] | GI50 (CAKI-1 renal) [µM] | GI50 (OVCAR-3 ovarian) [µM] | GI50 (PC-3 prostate) [µM] | GI50 (SF-295 CNS) [µM] | GI50 (SNB-19 CNS) [µM] | GI50 (UACC-257 melanoma) [µM] |
| --- | --- | --- | --- | --- | --- | --- | --- | --- | --- | --- | --- | --- | --- | --- |
| COC(=O)c1c(O)ccc2c1c1c(n2Cc2ccccc2OC)C(=O)c2ccccc2C1 | > 100 | > 100 | > 100 | > 100 | 78.8 | > 100 | > 100 | – | – | – | – | – | – | – |
| Cc1cc2c(c(C(=O)NCCC(=O)N[C@@H](C)C(=O)OCc3ccccc3)c1)Oc1c(cc(C)cc1C(=O)NCCC(=O)N[C@@H](C)C(=O)OCc1ccccc1)S2 | > 100 | – | > 100 | > 100 | > 100 | > 100 | > 100 | > 100 | – | – | – | – | – | – |
| COc1ccc2c(c1)CC1(O)COc3cc(OC)ccc3C1O2 (stereo not drawn) | > 100 | > 100 | > 100 | > 100 | > 100 | – | > 100 | > 100 | – | – | – | – | – | – |
| COc1ccc(/C=N\NC(=O)Nc2cccc3ccccc23)cc1 | 35.3 | > 100 | > 100 | – | > 100 | 36.8 | > 100 | – | – | – | – | – | – | – |
| Cc1ccc(C(=O)C2=CN=C3C(=O)N(c4ccccc4)N(C)C3(C)C2=N)cc1 (stereo not drawn) | > 100 | > 100 | > 100 | > 100 | > 100 | – | > 100 | > 100 | – | – | – | – | – | – |
| CC(C)(C)c1cc(/C=C/C(=O)CC(=O)/C=C/c2cc(C(C)(C)C)c(O)c(C(C)(C)C)c2)cc(C(C)(C)C)c1O | – | > 50 | > 50 | > 50 | > 50 | > 50 | > 50 | > 50 | – | – | – | – | – | – |
| O=C(NN1C(=O)CSC1c1ccco1)c1ccncc1 (stereo not drawn) | > 100 | – | > 100 | > 100 | > 100 | > 100 | > 100 | > 100 | – | – | – | – | – | – |
| CC(NC(=O)C(Cc1cnc[nH]1)NC(=O)C1CCC(=O)N1)C(N)=O (stereo not drawn) ([pGlu]-His-Ala-NH2; configuration not given here) | – | > 100 | > 100 | > 100 | > 100 | > 100 | – | > 100 | – | – | – | – | – | – |
| CCOC(=O)c1cn(CC)c2cc3c(cc2c1=O)CCS3(=O)=O | – | – | > 100 | > 100 | > 100 | > 100 | – | > 100 | – | – | – | – | – | – |
| COc1cc2c(cc1OC(=O)c1cc3ccccc3[nH]1)N=C[C@@H]1CCCN1C2=O | 13.8 | – | 0.375 | 0.818 | 6.93 | 3.04 | 0.691 | 4.48 | – | – | – | – | – | – |
| O=C(O)CN(CC(=O)O)Cc1ccn(-c2cccc(-n3ccc(CN(CC(=O)O)CC(=O)O)n3)n2)n1 | > 100 | – | > 100 | > 100 | > 100 | > 100 | > 100 | > 100 | – | – | – | – | – | – |
| COc1ccc(NCc2cnc3nc(N)nc(N)c3c2C)cc1 | > 100 | > 100 | – | > 100 | > 100 | > 100 | > 100 | – | – | – | – | – | – | – |
| Cc1cc(C)c2c(=N)c3ccccc3n(CCCCCCn3c4ccccc4c(=N)c4c(C)cc(C)nc43)c2n1 | 2.52 | – | – | 3.09 | 2.81 | 2.11 | 3.06 | 2.85 | – | – | – | – | – | – |
| Cc1cc2c(cc1-c1cc3c(cc1C)C(C(C)C)=C(O)C(=O)/C3=C\Nc1c(C)n(C)n(-c3ccccc3)c1=O)/C(=C/Nc1c(C)n(C)n(-c3ccccc3)c1=O)C(=O)C(O)=C2C(C)C | > 100 | – | > 100 | > 100 | > 100 | > 100 | > 100 | > 100 | – | – | – | – | – | – |
| Cc1c(O)c(=O)ccn1CCc1c[nH]c2ccccc12 | 7.25 | 17 | > 100 | – | > 100 | > 100 | 15.5 | > 100 | – | – | – | – | – | – |
| CC1C2CC(CC2N)C1(C)C (stereo not drawn) | > 100 | – | > 100 | > 100 | > 100 | > 100 | > 100 | > 100 | – | – | – | – | – | – |
| O=C(Cc1ccccc1)N=Nc1c(O)[nH]c2ccccc12 | – | – | > 100 | > 100 | > 100 | > 100 | > 100 | > 100 | – | – | – | – | – | – |
| Cn1cc(-c2nc(-c3c[nH]c4ccncc34)cs2)c2cc(F)ccc21 | 3.04 | – | – | 3.69 | 3.17 | 3.38 | 3.56 | 3.02 | 1.65 | 1.94 | 1.63 | 1.64 | 1.83 | 1.97 |
| COc1cc(/C=C2\N=C(C)N(n3c(-c4ccccc4)nc4ccccc4c3=O)C2=O)cc(OC)c1OC | > 100 | > 100 | > 100 | – | > 100 | > 100 | > 100 | > 100 | – | – | – | – | – | – |
| COC(=O)c1c(O)ccc2c1c1c(n2Cc2ccccn2)C(=O)c2ccccc2C1=O | > 100 | – | > 100 | 64.8 | > 100 | > 100 | > 100 | 70.6 | – | – | – | – | – | – |
